Experimental data reported in patent US8158850B2, “Method to enhance yield and purity of hybrid crops” (priority 2007, dated 2012).
Values joined by “and” are separate entries in the source; they are usually repeats but may differ in a detail not shown here. Identical values can stand only once.

Columns and labels:
Type in all cases: in vivo, corn (Zea mays)
[1] = tested on: LH198DMSRR2 control (CMS germplasm with glyphosate tolerance); experiment: Percent anther extrusion (AE %) at silk emergence after glyphosate treatment, field split plot test
From the text: (§1) Corn plants transformed with the DNA construct are produced and unique events that have the desired glyphosate tolerance phenotype are selected by treatment with glyphosate a various growth stages and at various rates of glyphosate. Optimal tassel and anther sensitivity to glyphosate can be determined by treatment with an effective dose of glyphosate during corn plant growth and then measuring the pollen shed or anther extrusion. Rapidly maturing corn inbred lines may have early tassel development and glyphosate treatments and rates can be adjusted as needed to produce male sterility in these inbred lines. Transgenic events for the glyphosate hybrid system were designated as event GHS1, GHS2 and GHS3, and selected by various glyphosate treatments to determine the rates and timing of glyphosate that provide the desired level of male sterility as measured by percent anther extrusion. Glyphosate was applied to a field containing the events using the following parameters: • Nozzle: Tee Jet Air Induction (AI) 110015-VS broadcast (green plus green adaptor) spaced on 30″ centers • GPA: 10-12 gallons per acre (GPA) • PSI: 30-35 pounds per square inch • Speed: 2-2.5 MPH • Nozzle Height: 16-18″ above “cup” of the whorl • Useful Conversions:
(§2) • Roundup Ultra®=3 lb acid equivalent (ae)/gal or 32 oz=0.75 lb ae/[…] • Roundup WeatherMax®—22 oz/acre=0.75 lb ae/acre • Nozzle calibration: Determine GPM (gallon per minute) output—Select nozzles and set PSI as specified above. Insure screens are all the same style and size. Collect output (30 sec minimum) of every nozzle at engine operating RPM equivalent to field conditions. Replicate 3 times for consistency and replace any nozzle with greater than +5% variation compared to other nozzles. Repeat until all nozzles are consistent. • Tractor speed—Determine sprayer speed in mph at above spray RPM. Measure off known distance (i.e. 100′) and measure 3 times for consistency. • Calibration of application equipment—The following formula was used to calculate spray output in GPA: GPA=5940×GPM (per nozzle), MPH×W; wherein W=Nozzle spacing (in inches) for broadcast spraying.
(§3) Transgenic events GHS1, GHS2, and GHS3 were treated with one or two applications of glyphosate (Roundup WeatherMax®) over the corn development stages V8-V12 (vegetative 8 leaf—vegetative 12 leaf). These development stages also correlate with pollen development in most inbred corn varieties. In this example, the transgenic events are in an LH198 germplasm crossed to LH287. The fertility score is a measure of the percent risk of anther extrusion (AE) observed at the time of silk emergence from the corn ear. The three events and a LH198DMSRR2 control (CMS germplasm with glyphosate tolerance) were treated with six glyphosate treatments (Table 4). The glyphosate treatments are single applications of 0.75 lb ae/ac at V8 stage (Trt 1), 0.75 lb ae/ac at V10 stage (Trt 2) and 0.54 lb ae/ac at V12 stage (Trt 3), and double applications of 0.75 lb ae/ac at V8 followed by 0.54 lb ae/ac at V12 (Trt 4), 0.75 lb ae/ac at V10 followed by 0.54 lb ae/ac at V12 (Trt 5), and 0.75 lb ae/ac at V8 followed by 0.75 lb ae/ac at V10 (Trt 6). The test was set up as a split plot design with 2 row plots and the glyphosate treatments applied in strips over all of the replications. FIG. 1 illustrates AE % as averaged across all spray treatments across each test plot and event.

[2] = tested on: transgenic corn event GHS1 (LH198 germplasm crossed to LH287); experiment: as above; conditions: Event GHS-1
From the text: as §1, §2, §3

[3] = tested on: transgenic corn event GHS2 (LH198 germplasm crossed to LH287); experiment: as above; conditions: Event GHS-2
From the text: as §1, §2, §3

[4] = tested on: transgenic corn event GHS3 (LH198 germplasm crossed to LH287); experiment: as above; conditions: Event GHS-3
From the text: as §1, §2, §3

[5] = tested on: hybrid seed production field, GHS1 or GHS2 female parent with MON88017 or nk603 male parent; experiment: Yield of the hybrid seed harvested from female rows of glyphosate-treated GHS fields; conditions: for average yield of hybrid seed: GHS1 or GHS2 female, glyphosate V8 and V10 at 22 oz/ac, CMS-nk603 comparator yield 29.05 kg; for Average Wt (kg), yield of the hybrid seed: glyphosate treated V8-V10; for Total wt (KG), yield of the hybrid seed: glyphosate treated V8-V10 (22 oz/ac), seed harvested from female rows
Procedure: The yield of hybrid seed is important for maintaining profitability in hybrid seed production systems. […] GHS1 and GHS2 are used as the female parent in a hybrid seed production field with MON88017 or nk603 as the male parent. The GHS fields were treated with glyphosate (V8 and V10 at 22 oz/ac) and the seed harvested from the female rows. […] The average yield is 29.72 kilograms (kg) and 33.39 kg, respectively compared to the CMS-nk603 yield of 29.05 kg.

[6] = Trt 4: 0.75 lb ae/ac at V8 followed by 0.54 lb ae/ac at V12
[7] = Trt 5: 0.75 lb ae/ac at V10 followed by 0.54 lb ae/ac at V12
[8] = Trt 6: 0.75 lb ae/ac at V8 followed by 0.75 lb ae/ac at V10

SMILES: O=C(O)CNCP(=O)(O)O [glyphosate, n-phosphonomethylglycine]
- AE (%) ([1]; Trt 1: 0.75 lb ae/ac at V8): 0.1%
- AE (%) ([1]; Trt 2: 0.75 lb ae/ac at V10): 0.1%
- AE (%) ([1]; Trt 3: 0.54 lb ae/ac at V12): 0.1%
- AE (%) [1, 6]: ~0.3%
- AE (%) [1, 7]: ~0.3%
- AE (%) [1, 8]: 0.0%
- AE (%) ([2]; Trt 2: 0.75 lb ae/ac at V10): 0.0%
- AE (%) ([2]; Trt 3: 0.54 lb ae/ac at V12): ~12.1%
- AE (%) [2, 6]: 0.0%
- AE (%) [2, 7]: 0.0%
- AE (%) [2, 8]: 0.0%
- AE (%) ([3]; Trt 1: 0.75 lb ae/ac at V8): 0.4%
- AE (%) ([3]; Trt 2: 0.75 lb ae/ac at V10): 0.0%
- AE (%) ([3]; Trt 3: 0.54 lb ae/ac at V12): ~3.0%
- AE (%) [3, 6]: 0.0%
- AE (%) [3, 7]: 0.0%
- AE (%) [3, 8]: 0.0%
- AE (%) ([4]; Trt 1: 0.75 lb ae/ac at V8): ~5.9%
- AE (%) ([4]; Trt 2: 0.75 lb ae/ac at V10): 0.1%
- AE (%) [4, 6]: 0.0%
- AE (%) [4, 7]: 0.0%
- AE (%) [4, 8]: 0.0%
- average yield of hybrid seed ([5]; MON88017 male): 29.72 kg
- average yield of hybrid seed ([5]; nk603 male): 33.39 kg
- Average Wt (kg), yield of the hybrid seed ([5]; female GHS1, average over MON88017 and NK603 male parents): 29.72 kg
- Total wt (KG), yield of the hybrid seed ([5]; female GHS1, male MON88017): 25.9 kg and 31.5 kg
- Total wt (KG), yield of the hybrid seed ([5]; female GHS1, male NK603): 32.16 kg and 29.35 kg
- Average Wt (kg), yield of the hybrid seed ([5]; female GHS2, average over MON88017 and NK603 male parents): 33.39 kg
- Total wt (KG), yield of the hybrid seed ([5]; female GHS2, male MON88017): 27.5 kg and 35.74 kg
- Total wt (KG), yield of the hybrid seed ([5]; female GHS2, male NK603): 38.67 kg and 31.66 kg
